Experiments:
TNF-α mRNA = experiment: Inhibition of LPS-induced TNF-α expression in PMA differentiated THP-1 cells; assay type: cell-based, Human; settings: LPS (1 ug/ml) and compound for 4 hours, LPS alone as 100%
Protocol: The purpose of the present study was to determine the inhibition of lipopolysaccharide(LPS)-induced TNF-α expression in phorbol merstyl ester (PMA) differentiated THP-1 cells.
Human monocytic leukaemia cell line (THP-1), differentiated into macrophage-like cells by PMA treatment was employed. Differentiated cells were treated with either LPS (1 ug/ml) alone or with LPS (1 ug/ml) and compound for 4 hours. Total RNA was isolated and expression of TNF-αmRNA along-with expression of 18S rRNA was monitored by real-time PCR. TNF-α mRNA expression was normalized relative to the expression of 18S rRNA Considering TNF-α expression for cells treated with LPS alone as 100%; the results for test compounds were expressed as % inhibition of TNF-α expression and are as shown in Table 4

HSP70b mRNA = experiment: Cellular expression of HSP-70 mRNA in primary mixed neurons (real-time PCR); assay type: cell-based; settings: fold induction of HSP70b mRNA relative to vehicle treated control; primary mixed neurons from neonatal rat cerebellum; 4 hours; normalized to 18S rRNA
Protocol: Experiments set forth in this section were conducted to determine whether the compounds of the present invention are able to elevate the expression of HSP-70 gene in cells.
Hela cell-line or primary mixed neurons derived from neonatal rat cerebellum were employed. Induction was carried out for the indicated dose(s) for 4 hours duration and total RNA was isolated. Expression of HSP70b mRNA along-with expression of 18S rRNA was monitored by real-time PCR. HSP70b mRNA expression was normalized relative to the expression of 18S rRNA.
The results for test compounds were expressed as fold induction of HSP-70 mRNA relative to vehicle treated control and are as shown in Table 2 & 3.

Compound: CC1(C)CN(Cc2ccccc2)CC(=Cc2ccccn2)C1=O [Compound 1, 1-Benzyl-3,3-dimethyl-5-[1-pyridin-2-yl-methylidene]-piperidin-4-one]
- TNF-alpha Inhibition (TNF-α mRNA): (++++) (>80%)

Compound: CC1(C)CN(C(=O)OCc2ccccc2)CC(=Cc2ccccn2)C1=O [Compound 2, 3,3-Dimethyl-4-oxo-5-[1-pyridin-2-yl-methylidene]-piperidine-1-carboxylic acid benzyl ester]
- TNF-alpha Inhibition (TNF-α mRNA): (+++) (61-80%)

Compound: CC1(C)CN(Cc2ccccc2)CC(=Cc2ccc(C(=O)N3CCOCC3)cc2)C1=O [Compound 7, 1-Benzyl-3,3-dimethyl-5-[1-[4-(morpholine-4-carbonyl)-phenyl]-methylidene]-piperidin-4-one]
- TNF-alpha Inhibition (TNF-α mRNA): (+++) (61-80%)

Compound: CSc1ccc(C=C2CN(Cc3ccccc3)CC(C)(C)C2=O)cc1 [Compound 8, 1-Benzyl-3,3-dimethyl-5-[1-(4-methylsulfanyl-phenyl)-methylidene]-piperidin-4-one]
- TNF-alpha Inhibition (TNF-α mRNA): (++++) (>80%)

Compound: CSc1ccc(C2/C(=C\c3cccc(N4CCOCC4)n3)C(=O)C(C)(C)CN2Cc2ccccc2)cc1 (centres unmarked) [Compound 42, 1-Benzyl-5,5-dimethyl-2-(4-methylsulfanyl-phenyl)-3-[1-(6-morpholin-4-yl-pyridin-2-yl)-meth-(E)-ylidene]-piperidin-4-one]
- HSP Induction in mixed neuron (HSP70b mRNA): (+++) (9-16 fold)
- TNF-alpha Inhibition (TNF-α mRNA): (++) (41-60%)

Compound: CC1(C)CN(Cc2ccccc2)C(c2ccc(C(F)(F)F)cc2)C(=Cc2cccc(N3CCOCC3)n2)C1=O (centres unmarked) [Compound 43, 1-Benzyl-5,5-dimethyl-3-[1-(6-morpholin-4-yl-pyridin-2-yl)-methylidene]-2-(4-trifluoromethyl-phenyl)-piperidin-4-one]
- HSP Induction in mixed neuron (HSP70b mRNA): (+++) (9-16 fold)
- TNF-alpha Inhibition (TNF-α mRNA): (++) (41-60%)

Compound: CC1(C)CN(Cc2ccccc2)C(c2ccc(Cl)c(Cl)c2)C(=Cc2ccccn2)C1=O (centres unmarked) [Compound 45, 1-Benzyl-2-(3,4-dichloro-phenyl)-5,5-dimethyl-3-[1-pyridin-2-yl-methylidene]-piperidin-4-one]
- HSP Induction in mixed neuron (HSP70b mRNA): (++) (5-8 fold)

Compound: CSc1ccc(C2C(=Cc3ccccn3)C(=O)C(C)(C)CN2Cc2ccccc2)cc1 (centres unmarked) [Compound 46, 1-Benzyl-5,5-dimethyl-2-(4-methylsulfanyl-phenyl)-3-[1-pyridin-2-yl-methylidene]-piperidin-4-one]
- HSP Induction in mixed neuron (HSP70b mRNA): (+++) (9-16 fold)
- TNF-alpha Inhibition (TNF-α mRNA): (++) (41-60%)

Compound: COc1ccc(CN2CC(C)(C)C(=O)C(=Cc3ccccn3)C2c2ccccc2)cc1 (centres unmarked) [Compound 47, 1-(4-Methoxy-benzyl)-5,5-dimethyl-2-phenyl-3-[1-pyridin-2-yl-methylidene]-piperidin-4-one]
- HSP Induction in mixed neuron (HSP70b mRNA): (++++) (>16 fold)
- TNF-alpha Inhibition (TNF-α mRNA): (+++) (61-80%)

Compound: COC(=O)N1CC(=Cc2ccccn2)C(=O)C(C)(C)C1Cc1ccc(OC)cc1 (centres unmarked) [Compound 52, 2-(4-Methoxy-benzyl)-3,3-dimethyl-4-oxo-5-[1-pyridin-2-yl-methylidene]-piperidine-1-carboxylic acid methyl ester]
- HSP Induction in mixed neuron (HSP70b mRNA): (++) (5-8 fold)
- TNF-alpha Inhibition (TNF-α mRNA): (++++) (>80%)

Compound: CC1(C)CN(Cc2cccs2)C(c2ccccc2F)C(=Cc2cccc(N3CCOCC3)n2)C1=O (centres unmarked) [Compound 57, 2-(2-Fluoro-phenyl)-5,5-dimethyl-3-[1-(6-morpholin-4-yl-pyridin-2-yl)-methylidene]-1-thiophen-2-ylmethyl-piperidin-4-one]
- HSP Induction in mixed neuron (HSP70b mRNA): (+) (2-4 fold)

Compound: CC1(C)CN(Cc2cccs2)C(c2ccccc2F)C(=Cc2ccccn2)C1=O (centres unmarked) [Compound 58, (2-Fluoro-phenyl)-5,5-dimethyl-3-[1-pyridin-2-yl-methylidene]-1-thiophen-2-ylmethyl-piperidin-4-one]
- HSP Induction in mixed neuron (HSP70b mRNA): (+) (2-4 fold)

Compound: COc1ccc(CC2N(C(=S)Nc3ccccc3)CC(=Cc3ccccn3)C(=O)C2(C)C)cc1 (centres unmarked) [Compound 60, 2-(4-Methoxy-benzyl)-3,3-dimethyl-4-oxo-5-[1-pyridin-2-yl-methylidene]-piperidine-1-carbothioic acid phenylamide]
- HSP Induction in mixed neuron (HSP70b mRNA): (++++) (>16 fold)
- TNF-alpha Inhibition (TNF-α mRNA): (+++) (61-80%)

Compound: CSc1ccc(C2C(=Cc3ccccn3)C(=O)C(C)(C)CN2Cc2cccs2)cc1 (centres unmarked) [Compound 61, 5,5-Dimethyl-2-(4-methylsulfanyl-phenyl)-3-[1-pyridin-2-yl-methylidene]-1-thiophen-2-ylmethyl-piperidin-4-one]
- HSP Induction in mixed neuron (HSP70b mRNA): (++++) (>16 fold)
- TNF-alpha Inhibition (TNF-α mRNA): (+++) (61-80%)

Compound: COc1ccc(CN2CC(C)(C)C(=O)C(=Cc3cccc(N4CCOCC4)n3)C2c2ccccc2)cc1 (centres unmarked) [Compound 62, 1-(4-Methoxy-benzyl)-5,5-dimethyl-3-[1-(6-morpholin-4-yl-pyridin-2-yl)-methylidene]-2-phenyl-piperidin-4-one]
- HSP Induction in mixed neuron (HSP70b mRNA): (+) (2-4 fold)

Compound: COc1ccc(CN2CC(C)(C)C(=O)C(=Cc3cccc(N4CCOCC4)n3)C2c2ccc(C(F)(F)F)cc2)cc1 (centres unmarked) [Compound 63, 1-(4-Methoxy-benzyl)-5,5-dimethyl-3-[1-(6-morpholin-4-yl-pyridin-2-yl)-methylidene]-2-(4-trifluoromethyl-phenyl)-piperidin-4-one]
- HSP Induction in mixed neuron (HSP70b mRNA): (++) (5-8 fold)
- TNF-alpha Inhibition (TNF-α mRNA): (++) (41-60%)

Compound: Cc1cc(N2CC(=Cc3ccccn3)C(=O)C(C)(C)C2)no1 [Compound 64, 3,3-Dimethyl-1-(5-methyl-isoxazol-3-yl)-5-[1-pyridin-2-yl-methylidene]-piperidin-4-one]
- HSP Induction in mixed neuron (HSP70b mRNA): (++++) (>16 fold)

Compound: Cc1cc(N2CC(C)(C)C(=O)C(=Cc3cccc(N4CCOCC4)n3)C2c2ccccc2)no1 (centres unmarked) [Compound 65, 5,5-Dimethyl-1-(5-methyl-isoxazol-3-yl)-3-[1-(6-morpholin-4-yl-pyridin-2-yl)-methylidene]-2-phenyl-piperidin-4-one]
- HSP Induction in mixed neuron (HSP70b mRNA): (+++) (9-16 fold)
- TNF-alpha Inhibition (TNF-α mRNA): (+++) (61-80%)

Compound: COc1ccc(CC2N(C(=O)NCc3ccccc3)CC(=Cc3ccccn3)C(=O)C2(C)C)cc1 (centres unmarked) [Compound 66, 2-(4-Methoxy-benzyl)-3,3-dimethyl-4-oxo-5-[1-pyridin-2-yl-methylidene]-piperidine-1-carboxylic acid benzylamide]
- HSP Induction in mixed neuron (HSP70b mRNA): (++) (5-8 fold)

Compound: CC1(C)CN(CCc2cccs2)CC(=Cc2cccc(N3CCOCC3)n2)C1=O [Compound 69, 3,3-Dimethyl-5-[1-(6-morpholin-4-yl-pyridin-2-yl)-methylidene]-1-(2-thiophen-2-yl-ethyl)-piperidin-4-one]
- HSP Induction in mixed neuron (HSP70b mRNA): (++++) (>16 fold)
- TNF-alpha Inhibition (TNF-α mRNA): (+++) (61-80%)

Compound: CC1(C)CN(Cc2ccc(F)cc2)CC(=Cc2cccc(N3CCOCC3)n2)C1=O [Compound 73, 1-(4-Fluoro-benzyl)-3,3-dimethyl-5-[1-(6-morpholin-4-yl-pyridin-2-yl)-methylidene]-piperidin-4-one]
- HSP Induction in mixed neuron (HSP70b mRNA): (+) (2-4 fold)

Compound: CC1(C)CN(Cc2ccc(F)cc2)C(c2ccccc2)C(=Cc2ccccn2)C1=O (centres unmarked) [Compound 76, 1-(4-Fluoro-benzyl)-5,5-dimethyl-2-phenyl-3-[1-pyridin-2-yl-methylidene]-piperidin-4-one]
- HSP Induction in mixed neuron (HSP70b mRNA): (+) (2-4 fold)

Compound: CC1(C)CN(Cc2ccc(F)cc2)C(c2ccccc2)C(=Cc2cccc(N3CCOCC3)n2)C1=O (centres unmarked) [Compound 81, 1-(4-Fluoro-benzyl)-5,5-dimethyl-3-[1-(6-morpholin-4-yl-pyridin-2-yl)-methylidene]-2-phenyl-piperidin-4-one]
- HSP Induction in mixed neuron (HSP70b mRNA): (+) (2-4 fold)

Compound: COc1ccc(CN2CC(C)(C)C(=O)C(=Cc3cccc(N4CCOCC4)n3)C2c2ccccc2F)cc1 (centres unmarked) [Compound 86, 2-(2-Fluoro-phenyl)-1-(4-methoxy-benzyl)-5,5-dimethyl-3-[1-(6-morpholin-4-yl-pyridin-2-yl)-methylidene]-piperidin-4-one]
- HSP Induction in mixed neuron (HSP70b mRNA): (+) (2-4 fold)

Compound: COc1ccc(C2C(=Cc3cccc(N4CCOCC4)n3)C(=O)C(C)(C)CN2Cc2ccccc2)c(F)c1 (centres unmarked) [Compound 92, 1-Benzyl-2-(2-fluoro-4-methoxy-phenyl)-5,5-dimethyl-3-[1-(6-morpholin-4-yl-pyridin-2-yl)-methylidene]-piperidin-4-one]
- HSP Induction in mixed neuron (HSP70b mRNA): (++) (5-8 fold)

Compound: CC1(C)CN(CCc2ccccc2)C(c2ccccc2)C(=Cc2ccccn2)C1=O (centres unmarked) [Compound 94, 5,5-Dimethyl-1-phenethyl-2-phenyl-3-[1-pyridin-2-yl-methylidene]-piperidin-4-one]
- HSP Induction in mixed neuron (HSP70b mRNA): (+) (2-4 fold)

Compound: CC1(C)CN(CCc2ccccc2)C(c2ccccc2)C(=Cc2cccc(N3CCOCC3)n2)C1=O (centres unmarked) [Compound 95, 5,5-Dimethyl-3-[1-(6-morpholin-4-yl-pyridin-2-yl)-methylidene]-1-phenethyl-2-phenyl-piperidin-4-one]
- HSP Induction in mixed neuron (HSP70b mRNA): (++) (5-8 fold)

Compound: Cc1ccc(CN2CC(C)(C)C(=O)C(=Cc3cccc(N4CCOCC4)n3)C2c2ccccc2)cc1 (centres unmarked) [Compound 232, 5,5-Dimethyl-1-(4-methyl-benzyl)-3-[1-(6-morpholin-4-yl-pyridin-2-yl)-methylidene]-2-phenyl-piperidin-4-one]
- HSP Induction in mixed neuron (HSP70b mRNA): (++) (5-8 fold)
